In assay [1] the test system is respiration in cats. The following applies: Garner, et al. 1989; cited from earlier work.
For assay [2], the system named is respiration in normal male volunteers. The following applies: Rapoport, et al. 1988; cited from earlier work.
The test system of assay [3] is patients suffering from obstructive sleep apnea. The experiment in a line: Clinical experience: single dose of buspirone at bedtime in patients with obstructive sleep apnea. It counts as in vivo, human (patients). From the text: The effectiveness of azapirone treatment of patients suffering from sleep apneas can be exemplified by clinical experience with buspirone. […] One of the most consistent physiological measurements of improvement was a 10 to 20% increase in blood oxygen levels, an indication of improved respiratory efficiency.

[4] abbreviates: single dose at bedtime, patients suffering from obstructive sleep apnea.

For the compound `O=C1CC2(CCCC2)CC(=O)N1CCCCN1CCN(c2ncccn2)CC1` [buspirone], the effect on respiration result in assay [1] was “stimulatory effect on respiration”. Besides, in assay [2], the effect on respiration result is on record as “stimulatory effect on respiration”. The “effectiveness in treating sleep apneas” value in assay [3] (patients suffering from sleep apneas) is “effective”. In addition, in assay [3] (setting [4]), the “episodes of sleep disturbance” value is on record as “marked reduction in episodes of sleep disturbance”, the sleep efficiency result is recorded as “increased sleep efficiency” and the total sleep time entry was “gain in total sleep time”.

The values above are taken from patent US6432956B1, “Method for treatment of sleep apneas” (priority 1990, dated 2002).
